{"source": "DBAASP", "experiment_in_all_cases": "≥ marks a high value that may be exact or a test limit, other limits are often not marked, values filed in µg/mL are converted to µM", "key": {"[1]": {"test_system": "Candida albicans ATCC 90028"}, "[2]": {"test_system": "Staphylococcus aureus NCTC 8325"}, "[3]": {"test_system": "Escherichia coli ATCC 25922"}, "[4]": {"test_system": "Escherichia coli ATCC 11775"}, "[5]": {"test_system": "Pseudomonas aeruginosa ATCC 27853"}, "[6]": {"test_system": "Staphylococcus aureus ATCC 25923"}, "[7]": {"test_system": "Escherichia coli ATCC 25726"}, "Streptococcus mutans": {"test_system": "Streptococcus mutans"}, "[8]": {"test_system": "Pseudomonas aeruginosa KCTC 1637"}, "[9]": {"test_system": "Staphylococcus epidermidis KCTC 1917"}, "[10]": {"test_system": "Staphylococcus aureus KCTC 1621"}, "[11]": {"test_system": "Escherichia coli KCTC 1682"}, "[12]": {"test_system": "Salmonella typhimurium KCTC 1926"}, "[13]": {"test_system": "Bacillus subtilis KCTC 3068"}}}
{"compound": "CC[C@H](C)[C@H](NC(=O)[C@H](CC(C)C)NC(=O)[C@H](CCCCN)NC(=O)[C@H](CCCCN)NC(=O)[C@@H](NC(=O)[C@H](C)NC(=O)[C@H](CCCCN)NC(=O)[C@@H](NC(=O)[C@H](C)NC(=O)[C@H](Cc1cnc[nH]1)NC(=O)[C@@H]1CCCN1C(=O)[C@@H](NC(=O)[C@H](CC(C)C)NC(=O)[C@@H]1CCCN1C(=O)[C@H](CCCCN)NC(=O)[C@@H](NC(=O)[C@H](Cc1ccc(O)cc1)NC(=O)[C@H](CCCCN)NC(=O)[C@H](CCSC)NC(=O)[C@H](Cc1ccccc1)NC(=O)CN)[C@@H](C)CC)[C@@H](C)CC)C(C)C)[C@@H](C)CC)C(=O)O", "note": "[GFMKYIKPLIPHAVKAIKKLI]", "values": [{"measurement": "MIC", "setting": "[1]", "value": "≥ 200", "unit": "µM"}, {"measurement": "MIC", "setting": "[2]", "value": "≥ 50", "unit": "µM"}, {"measurement": "MIC", "setting": "[3]", "value": 6.25, "unit": "µM"}]}
{"compound": "NCCCC[C@H](NC(=O)[C@H](Cc1c[nH]c2ccccc12)NC(=O)[C@H](CCC(N)=O)NC(=O)[C@H](Cc1c[nH]c2ccccc12)NC(=O)[C@H](CCCCN)NC(=O)[C@@H](N)CCCCN)C(=O)O", "note": "[KKWQWK]", "values": [{"measurement": "MIC", "setting": "[4]", "value": 23, "unit": "µM"}, {"measurement": "MIC", "setting": "[5]", "value": 47, "unit": "µM"}, {"measurement": "MIC", "setting": "[6]", "value": 47, "unit": "µM"}, {"measurement": "MIC", "setting": "[3]", "value": 47, "unit": "µM"}]}
{"compound": "CC[C@H](C)[C@H](NC(=O)CNC(=O)[C@H](CO)NC(=O)[C@H](CC(C)C)NC(=O)[C@H](CC(C)C)NC(=O)[C@H](CCCCN)NC(=O)CNC(=O)[C@H](CC(C)C)NC(=O)[C@@H](NC(=O)[C@@H]1CCCN1C(=O)[C@H](CC(C)C)NC(=O)[C@@H](N)Cc1ccccc1)[C@@H](C)CC)C(=O)N[C@@H](CC(C)C)C(N)=O", "note": "[FLPILGKLLSGIL]", "values": [{"measurement": "MIC", "setting": "[2]", "value": 15, "unit": "µM"}, {"measurement": "MIC", "setting": "[3]", "value": "> 100", "unit": "µM"}]}
{"compound": "CC[C@H](C)[C@H](NC(=O)CN)C(=O)N[C@@H](CC(C)C)C(=O)N[C@@H](CC(=O)O)C(=O)N[C@@H](CO)C(=O)N[C@@H](Cc1ccccc1)C(=O)N[C@@H](CCCCN)C(=O)NCC(=O)N[C@H](C(=O)N[C@@H](C)C(=O)N[C@@H](CCCCN)C(=O)NCC(=O)N[C@H](C(=O)N[C@@H](C)C(=O)N[C@@H](CCCCN)C(=O)N[C@@H](CC(=O)O)C(=O)N[C@@H](CC(C)C)C(=O)N[C@@H](C)C(=O)NCC(=O)N[C@@H](CCCCN)C(=O)N[C@@H](CC(C)C)C(=O)N[C@@H](CC(C)C)C(=O)N[C@@H](CC(=O)O)C(=O)N[C@@H](CCCCN)C(=O)N[C@@H](CC(C)C)C(=O)N[C@@H](CCCCN)C(=O)N[C@H]1CSSC[C@@H](C(=O)O)NC(=O)CNC(=O)[C@H]([C@@H](C)O)NC(=O)[C@H]([C@@H](C)CC)NC(=O)[C@H](CCCCN)NC1=O)C(C)C)C(C)C", "note": "[GILDSFKGVAKGVAKDLAGKLLDKLKCKITGC]", "values": [{"measurement": "MIC", "setting": "[1]", "value": "≥ 150", "unit": "µM"}, {"measurement": "MIC", "setting": "[2]", "value": 11, "unit": "µM"}, {"measurement": "MIC", "setting": "[6]", "value": 50, "unit": "µM"}, {"measurement": "MIC", "setting": "[7]", "value": 25, "unit": "µM"}, {"measurement": "MIC", "setting": "[3]", "value": 4, "unit": "µM"}]}
{"compound": "CC[C@H](C)[C@H](NC(=O)[C@H](CCCN=C(N)N)NC(=O)[C@H](CCCCN)NC(=O)[C@H](CC(C)C)NC(=O)[C@H](C)NC(=O)[C@@H](N)CCCN=C(N)N)C(=O)N[C@@H](CCCCN)C(=O)N[C@@H](Cc1cnc[nH]1)C(=O)N[C@H](C(=O)N[C@@H](CC(C)C)C(=O)N[C@@H](CCCCN)C(=O)O)C(C)C", "note": "[RALKRIKHVLK]", "values": [{"measurement": "MIC", "setting": "Streptococcus mutans", "value": "≥ 91.8", "unit": "µM"}]}
{"compound": "CC[C@H](C)[C@H](N)C(=O)N[C@@H](CC(C)C)C(=O)N[C@@H](CCCCN)C(=O)N[C@@H](Cc1c[nH]c2ccccc12)C(=O)N[C@@H](CCCCN)C(=O)N[C@@H](Cc1c[nH]c2ccccc12)C(=O)N1CCC[C@H]1C(=O)N[C@@H](Cc1c[nH]c2ccccc12)C(=O)N[C@@H](Cc1c[nH]c2ccccc12)C(=O)N[C@@H](CCCCN)C(=O)N[C@@H](Cc1c[nH]c2ccccc12)C(=O)N[C@@H](CCCN=C(N)N)C(=O)N[C@@H](CCCN=C(N)N)C(N)=O", "note": "[ILKWKWPWWKWRR]", "values": [{"measurement": "MIC", "setting": "[8]", "value": 5.08, "unit": "µM"}, {"measurement": "MIC", "setting": "[9]", "value": 5.08, "unit": "µM"}, {"measurement": "MIC", "setting": "[10]", "value": 2.54, "unit": "µM"}, {"measurement": "MIC", "setting": "[11]", "value": 5.08, "unit": "µM"}, {"measurement": "MIC", "setting": "[12]", "value": 5.08, "unit": "µM"}, {"measurement": "MIC", "setting": "[13]", "value": 2.54, "unit": "µM"}]}
{"compound": "CC(C)C[C@H](NC(=O)[C@H](Cc1cnc[nH]1)NC(=O)[C@H](CCC(N)=O)NC(=O)[C@H](Cc1ccccc1)NC(=O)[C@H](CCC(=O)O)NC(=O)[C@@H](NC(=O)[C@H](CC(C)C)NC(=O)[C@H](CC(C)C)NC(=O)[C@@H](N)Cc1ccc(O)cc1)[C@@H](C)O)C(=O)N[C@@H](Cc1ccccc1)C(=O)N[C@@H](CCCCN)C(=O)O", "note": "[YLLTEFQHLFK]", "values": [{"measurement": "MIC", "setting": "Streptococcus mutans", "value": "≥ 86.9", "unit": "µM"}]}
{"compound": "CC[C@H](C)[C@H](N)C(=O)N[C@@H](CC(C)C)C(=O)N[C@@H](CCCCN)C(=O)N[C@@H](Cc1c[nH]c2ccccc12)C(=O)N[C@@H](CCCCN)C(=O)N[C@@H](Cc1c[nH]c2ccccc12)C(=O)N[C@@H](CCCCN)C(=O)N[C@@H](Cc1c[nH]c2ccccc12)C(=O)N[C@@H](Cc1c[nH]c2ccccc12)C(=O)N1CCC[C@H]1C(=O)N[C@@H](Cc1c[nH]c2ccccc12)C(=O)N[C@@H](CCCN=C(N)N)C(=O)N[C@@H](CCCN=C(N)N)C(N)=O", "note": "[ILKWKWKWWPWRR]", "values": [{"measurement": "MIC", "setting": "[8]", "value": 5.08, "unit": "µM"}, {"measurement": "MIC", "setting": "[9]", "value": 5.08, "unit": "µM"}, {"measurement": "MIC", "setting": "[10]", "value": 5.08, "unit": "µM"}, {"measurement": "MIC", "setting": "[11]", "value": 5.08, "unit": "µM"}, {"measurement": "MIC", "setting": "[12]", "value": 5.08, "unit": "µM"}, {"measurement": "MIC", "setting": "[13]", "value": 5.08, "unit": "µM"}]}
{"compound": "CC[C@H](C)[C@H](NC(=O)CNC(=O)CNC(=O)[C@@H](NC(=O)[C@H](Cc1ccccc1)NC(=O)[C@H](CC(C)C)NC(=O)[C@H](CO)NC(=O)[C@H](CC(C)C)NC(=O)[C@@H](NC(=O)CN)[C@@H](C)CC)[C@@H](C)O)C(=O)N[C@@H](CCCCN)C(=O)N[C@@H](C)C(=O)N[C@@H](CC(C)C)C(=O)NCC(=O)N[C@@H](CCCCN)C(=O)N[C@H](C(=O)N[C@@H](CC(C)C)C(=O)N[C@@H](Cc1ccccc1)C(=O)N[C@@H](CCCCN)C(=O)N[C@@H](CCSC)C(=O)N[C@@H](C)C(=O)NCC(=O)N[C@@H](CCCCN)C(=O)N[C@@H](C)C(=O)NCC(=O)N[C@@H](C)C(=O)N[C@@H](CCC(=O)O)C(=O)N[C@@H](Cc1cnc[nH]1)C(=O)N[C@@H](CC(C)C)C(=O)N[C@@H](C)C(=O)N[C@H]1CSSC[C@@H](C(=O)O)NC(=O)[C@H](CCC(N)=O)NC(=O)[C@H](CC(N)=O)NC(=O)[C@H]([C@@H](C)O)NC(=O)[C@H](C)NC(=O)[C@H](CCCCN)NC1=O)[C@@H](C)O", "note": "[GILSLFTGGIKALGKTLFKMAGKAGAEHLACKATNQC]", "values": [{"measurement": "MIC", "setting": "[1]", "value": "≥ 53", "unit": "µM"}, {"measurement": "MIC", "setting": "[2]", "value": 3, "unit": "µM"}, {"measurement": "MIC", "setting": "[3]", "value": 6, "unit": "µM"}]}
{"compound": "CC[C@H](C)[C@H](NC(=O)[C@H](CC(C)C)NC(=O)[C@H](CCCCN)NC(=O)[C@@H](NC(=O)[C@@H](NC(=O)[C@H](CCCN=C(N)N)NC(=O)[C@@H](N)CC(C)C)[C@@H](C)CC)C(C)C)C(=O)N[C@@H](CC(C)C)C(=O)N[C@@H](CCCCN)C(=O)N[C@@H](Cc1c[nH]c2ccccc12)C(=O)N[C@@H](CC(C)C)C(=O)N[C@@H](CCCN=C(N)N)C(N)=O", "note": "[LRIVKLILKWLR]", "values": [{"measurement": "MIC", "setting": "[8]", "value": 16, "unit": "µM"}, {"measurement": "MIC", "setting": "[9]", "value": 2, "unit": "µM"}, {"measurement": "MIC", "setting": "[10]", "value": 4, "unit": "µM"}, {"measurement": "MIC", "setting": "[11]", "value": 16, "unit": "µM"}, {"measurement": "MIC", "setting": "[12]", "value": 4, "unit": "µM"}, {"measurement": "MIC", "setting": "[13]", "value": 8, "unit": "µM"}]}
{"compound": "CC[C@H](C)[C@@H]1NC(=O)[C@H](CCCCN)NC(=O)[C@@H](NC(=O)[C@H](CCCCN)NC(=O)[C@H](CC(C)C)NC(=O)[C@H](CCCCN)NC(=O)[C@H](CC(=O)O)NC(=O)[C@H](CC(C)C)NC(=O)[C@H](CCSC)NC(=O)[C@H](CO)NC(=O)[C@H](C)NC(=O)[C@H](C)NC(=O)[C@@H](NC(=O)[C@@H](NC(=O)[C@H](CCCCN)NC(=O)[C@H](C)NC(=O)[C@@H](NC(=O)CNC(=O)[C@H](CCCCN)NC(=O)[C@@H](NC(=O)[C@@H](NC(=O)[C@H](CC(=O)O)NC(=O)[C@H](CC(C)C)NC(=O)[C@H](CC(C)C)NC(=O)CN)[C@@H](C)O)[C@@H](C)CC)C(C)C)[C@@H](C)O)C(C)C)CSSC[C@@H](C(=O)O)NC(=O)CNC(=O)[C@H](CO)NC1=O", "note": "[GLLDTIKGVAKTVAASMLDKLKCKISGC]", "values": [{"measurement": "MIC", "setting": "[1]", "value": "≥ 35", "unit": "µM"}, {"measurement": "MIC", "setting": "[2]", "value": 2, "unit": "µM"}, {"measurement": "MIC", "setting": "[3]", "value": 2, "unit": "µM"}]}
{"compound": "CC[C@H](C)[C@H](NC(=O)[C@H](Cc1ccccc1)NC(=O)[C@H](CCCCN)NC(=O)[C@@H](NC(=O)[C@H](Cc1ccccc1)NC(=O)[C@H](CCC(N)=O)NC(=O)[C@H](CCCCN)NC(=O)[C@@H](N)CC(C)C)C(C)C)C(=O)N[C@@H](Cc1cnc[nH]1)C(=O)N[C@@H](CCCN=C(N)N)C(=O)N[C@@H](Cc1ccccc1)C(N)=O", "note": "[LKQFVKFIHRF]", "values": [{"measurement": "MIC", "setting": "Streptococcus mutans", "value": 16.4, "unit": "µM"}]}
{"compound": "CC(C)C[C@H](NC(=O)[C@H](Cc1c[nH]c2ccccc12)NC(=O)[C@H](CCCCN)NC(=O)[C@H](CC(C)C)NC(=O)[C@H](Cc1ccccc1)NC(=O)[C@@H](NC(=O)[C@H](CCCCN)NC(=O)[C@@H](N)Cc1ccccc1)[C@@H](C)O)C(=O)N[C@@H](Cc1cnc[nH]1)C(=O)N[C@@H](CCCN=C(N)N)C(=O)N[C@@H](Cc1ccccc1)C(N)=O", "note": "[FKTFLKWLHRF]", "values": [{"measurement": "MIC", "setting": "Streptococcus mutans", "value": 15.8, "unit": "µM"}]}
